From patent US4361703A, “Para-amino(or nitro)phenyl N-acetylaminothioalkanoates” (priority 1977, dated 1982)

Assays:
in vitro = in vitro ADME, hog; conditions: pig, pH 7.2; tris buffer plus hog liver esterase, 30° C.
Experimental: (§1) PREPARATION OF TRIS BUFFER
(§2) 0.05 M tris buffer was made by dissolving 6.05 grams of tris-(hydroxymethyl)-methylamine in 1000 ml. of water, and adjusting the pH to 7.2 by the addition of 0.1 M HCl.
(§3) Standard solutions of 1×10^-4 M Compound A in analytical grade methanol (0.01 ml) were prepared, and tested in the simulated gastric and intestinal fluids, in tris buffer alone, in tris buffer with added hog liver esterase and also in serum. The solutions under test were incorporated in 1 ml. of each of the test fluids. A temperature of 30° C. was used for the assays involving the hog liver esterase, whereas a temperature of 37° C. was used for the assays involving the simulated gastric and intestinal fluids and the serum. After this, the mixture was allowed to stand and the supernatant liquid was spotted onto silica t.l.c. plates and developed in 90:10 chloroform/methanol. The mixture was then extracted with 5 mls of chloroform and the chloroform-containing mixture was filtered through phase-separating papers, which allow only the chloroform solution to pass through. The chloroform solution was also spotted onto silica t.l.c. plates and developed in 90:10 chloroform/methanol.

hog liver esterase = experiment: in vitro; assay type: in vitro ADME; conditions: 30° C.
Experimental: as §1, §2, §3

[1] = Hydrolysis stability in human serum; assay type: in vitro ADME; conditions: 37° C.; for half-life: human serum from two volunteers
Experimental: The serum used in the assays was prepared by taking whole blood into plain tubes, incubating for one hour at 37° C., and then centrifuging at 2000 RPM for 10 minutes.
as §3

[2] = system: yeast-inflamed hind-paw pain-threshold; experiment: Analgesic activity, Randall-Selitto test in rats; assay type: in vivo, female Charles River rats; conditions: for P of pain-threshold (t-test versus control): 2 millimoles/kg oral
Experimental: (C)--Investigation of Analgesic Activity in Rats
A control group received only the gum tragacanth vehicle.
In order to evaluate the effect of the treatment upon pain-thresholds, pressure was applied both to the injected hind-paw and to the other non-injected hind-paw. The pain-threshold was noted as the pressure at which the rat flinched, measured using an Ugo Basile "Analgesimeter" for both hind-paws of each rat at intervals of 1 hour, 3 hours, 5 hours and 22 hours after the administration, and expressed as the percentage of the pain-threshold pressure for the injected (and thus inflamed) hind-paw as against the non-injected (and thus healthy) hind-paw.

in vivo = conditions: mouse, in vivo, po
Experimental: (§4) (E)--Investigation of Acute Oral Toxicity in Mice
(§5) Charles River (CD-1 COBS) albino mice, 20-22 g in weight, were kept for some days in an air-conditioned animal house and fed with a standard diet (sterile VAR granules). They were fasted overnight before experiment, with water ad libitum. 15 Male mice and 15 female mice were used for each experiment.
(§6) N-Acetyl-para-aminophenol (NAPA) and N-acetyl-para-aminophenyl N'-acetyl-D,L-methionate (Compound A) were then administered to the mice, orally, as a suspension (shaken continuously with an electromagnetic agitator) in 5% gum arabic at a volume of 0.02 ml/g, either individually or in variously proportioned mixtures and at different dose levels, as shown in Table VII below.
(§7) A control group received only the 5% gum arabic vehicle.

[3] = system: Charles River (CD-1 COBS) albino mice; experiment: in vivo
Experimental: as §4, §5, §6, §7

[4] = Acute oral toxicity in rats; assay type: in vivo; conditions: rat, in vivo, po; for mortality at 24 h / mortality at 48 h / mortality at 72 h / mortality at 96 h / mortality at 120 h / mortality at 144 h / mortality at 168 h: Percentage Mortality
Experimental: (§8) (F)--Investigation of Acute Oral Toxicity in Rats
(§9) The investigation was carried out upon groups of 10 male and 10 female albino rats (Charles River CD-1 COBS) of 80-100 g body weight. […] Before the experiment they were fasted overnight, with water ad libitum. NAPA and Compound A were then administered orally by oesophageal intubation as suspensions (continuously shaken with an electromagnetic agitator) in 1% gum arabic at a volume of 2 ml/100 g body weight, and at dose levels of 1, 2, 4 and 8 g/kg. A control group received orally, under the same experimental conditions, merely 2 ml/100 g of the suspension vehicle. The rats were then kept under observation during seven days, while their behaviour patterns were observed and the mortality recorded

[5] = system: albino rats (Charles River CD-1 COBS); experiment: Acute oral toxicity in rats; assay type: in vivo
Experimental: as §8, §9

[6] = mouse, in vivo, po
Experimental: (A)--Investigation of Serum Concentrations in Mice
36 Charles River COBS mice (18 males and 18 females) weighing 30 g each were deprived of food for 16 hours before the trial but were given their usual drinking water. Three groups, each containing 6 males and 6 females, received a dosage of 1 ml/100 g body weight per mouse, orally by stomach tube, of a suspension in 1% gum tragacanth of respectively:
Group X: 500 mg/kg of N-acetyl-para-aminophenol
A blood sample was taken by throat-slitting from one male and one female from each Group at each study time, i.e. 1/2, 1, 2, 4 and 24 hours after the oral administration.
At times 1/2, 1, 2 and 4 hours, each serum sample was divided into three 0.1 ml trial samples for the following three determinations:

SMILES: CSCCC(NC(C)=O)C(=O)Oc1ccc(NC(C)=O)cc1 (racemic) [Compound A, N-acetyl-para-aminophenyl N'-acetyl-D,L-methionate]
- half-life (in vitro): ~7.92 h
- effect of hog liver esterase on the rate of hydrolysis (hog liver esterase): no effect on the rate of hydrolysis
- effect of human serum on the rate of hydrolysis [1]: increased the rate of hydrolysis
- half-life [1]: 2.5 h
- half-life ([1]; human, serum, read-out: half-life): 2.33 h
- Percentage Pain-Threshold (injected vs non-injected paw) ([2]; 1 millimole/kg oral (NAPA 151, A 324 mg/kg), 1 hr. (3.5 hrs. from yeast)): 44 ± 3.8 Percentage
- Percentage Pain-Threshold (injected vs non-injected paw) ([2]; 1 millimole/kg oral (NAPA 151, A 324 mg/kg), 3 hrs. (5.5 hrs. from yeast)): 41 ± 2.9 Percentage
- Percentage Pain-Threshold (injected vs non-injected paw) ([2]; 1 millimole/kg oral (NAPA 151, A 324 mg/kg), 5 hrs. (7.5 hrs. from yeast)): 50 ±4.2 Percentage
- Percentage Pain-Threshold (injected vs non-injected paw) ([2]; 1 millimole/kg oral (NAPA 151, A 324 mg/kg), 22 hrs. (24.5 hrs. from yeast)): 50 ± 2.4 Percentage
- analgesic effect ([2]; 2 millimoles/kg level, oral): statistically-significant analgesic effect at the 2 millimoles/kg level, which is at least as great as N-acetyl-para-aminophenol (NAPA)
- Percentage Pain-Threshold (injected vs non-injected paw) ([2]; 2 millimoles/kg oral (NAPA 302, A 648 mg/kg), 1 hr. (3.5 hrs. from yeast)): 53 ± 3.3 Percentage
- Percentage Pain-Threshold (injected vs non-injected paw) ([2]; 2 millimoles/kg oral (NAPA 302, A 648 mg/kg), 3 hrs. (5.5 hrs. from yeast)): 54 ±3.2 Percentage
- Percentage Pain-Threshold (injected vs non-injected paw) ([2]; 2 millimoles/kg oral (NAPA 302, A 648 mg/kg), 5 hrs. (7.5 hrs. from yeast)): 59 ± 2.7 Percentage
- Percentage Pain-Threshold (injected vs non-injected paw) ([2]; 2 millimoles/kg oral (NAPA 302, A 648 mg/kg), 22 hrs. (24.5 hrs. from yeast)): 54 ± 1.9 Percentage
- P of pain-threshold (t-test versus control) ([2]; 1 hr.): < 0.02
- P of pain-threshold (t-test versus control) ([2]; 3 hrs.): < 0.02
- P of pain-threshold (t-test versus control) ([2]; 5 hrs.): < 0.01
- P of pain-threshold (t-test versus control) ([2]; 22 hrs.): < 0.01
- LD50 at 24 h (in vivo): ≥ 4000 mg/kg
- LD50 at 168 h (in vivo): ≥ 4000 mg/kg
- behaviour / symptoms ([3]; mouse, in vivo): hypothermia, tremor, tail extension, epistaxis and acrocyanosis, followed by death
- LD50 compared with NAPA ([3]; oral, mice): several times greater than that of the well-tried analgesic NAPA
- LD50 at 24 h [4]: > 8000 mg/kg
- LD50 at 168 h [4]: > 8000 mg/kg
- mortality at 24 h ([4]; 1000 mg/kg): 0%
- mortality at 48 h ([4]; 1000 mg/kg): 0%
- mortality at 72 h ([4]; 1000 mg/kg): 0%
- mortality at 96 h ([4]; 1000 mg/kg): 0%
- mortality at 120 h ([4]; 1000 mg/kg): 0%
- mortality at 144 h ([4]; 1000 mg/kg): 0%
- mortality at 168 h ([4]; 1000 mg/kg): 0%
- mortality at 24 h ([4]; 2000 mg/kg): 0%
- mortality at 48 h ([4]; 2000 mg/kg): 0%
- mortality at 72 h ([4]; 2000 mg/kg): 0%
- mortality at 96 h ([4]; 2000 mg/kg): 0%
- mortality at 120 h ([4]; 2000 mg/kg): 0%
- mortality at 144 h ([4]; 2000 mg/kg): 0%
- mortality at 168 h ([4]; 2000 mg/kg): 0%
- mortality at 24 h ([4]; 4000 mg/kg): 0%
- mortality at 48 h ([4]; 4000 mg/kg): 0%
- mortality at 72 h ([4]; 4000 mg/kg): 0%
- mortality at 96 h ([4]; 4000 mg/kg): 0%
- mortality at 120 h ([4]; 4000 mg/kg): 0%
- mortality at 144 h ([4]; 4000 mg/kg): 0%
- mortality at 168 h ([4]; 4000 mg/kg): 0%
- mortality at 24 h ([4]; 8000 mg/kg): 0%
- mortality at 48 h ([4]; 8000 mg/kg): 0%
- mortality at 72 h ([4]; 8000 mg/kg): 0%
- mortality at 96 h ([4]; 8000 mg/kg): 0%
- mortality at 120 h ([4]; 8000 mg/kg): 0%
- mortality at 144 h ([4]; 8000 mg/kg): 0%
- mortality at 168 h ([4]; 8000 mg/kg): 0%
- toxicity compared with NAPA ([5]; oral, rats): far less toxic than NAPA
- mortality (in words) ([5]; oral, rats, 1-8 g/kg): no mortality was recorded at any of the different dose levels
- mortality (in words) ([5]; rat, in vivo, po): did not induce any mortality at dose levels up to 8 g/kg
- serum "total" or "enzymatic" NAPA profile [6]: does not however give the acute peak observed at one-half an hour after the administration of NAPA+methionine
